The target in test [1] is Carbonic anhydrase 5A, mitochondrial (Homo sapiens) (UniProt P35218). As to the kind of experiment: Activation of human recombinant carbonic anhydrase 5A by stopped-flow CO2 hydrase method.
For test [2], the target named is Carbonic anhydrase 5B, mitochondrial (Homo sapiens) (UniProt Q9Y2D0). As to the kind of experiment: Activation of human recombinant carbonic anhydrase 5B by stopped-flow CO2 hydrase method.

Results on 15 compounds are retold here after ChEMBL document CHEMBL1139064, “Carbonic anhydrase activators: an activation study of the human mitochondrial isoforms VA and VB with amino acids and amines” (Bioorg Med Chem Lett, 2007).

Sequence of Carbonic anhydrase 5A, mitochondrial (Homo sapiens) (P35218 whole entry): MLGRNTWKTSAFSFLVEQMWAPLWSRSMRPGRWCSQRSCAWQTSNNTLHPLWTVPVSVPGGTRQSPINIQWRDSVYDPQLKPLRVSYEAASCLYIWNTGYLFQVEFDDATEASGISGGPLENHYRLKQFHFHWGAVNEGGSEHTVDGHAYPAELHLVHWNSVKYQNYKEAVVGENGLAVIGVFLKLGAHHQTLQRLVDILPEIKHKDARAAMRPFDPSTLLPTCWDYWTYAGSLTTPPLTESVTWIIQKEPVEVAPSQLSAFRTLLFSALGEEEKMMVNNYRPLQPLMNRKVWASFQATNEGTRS
Sequence of Carbonic anhydrase 5B, mitochondrial (Homo sapiens) (Q9Y2D0 whole entry): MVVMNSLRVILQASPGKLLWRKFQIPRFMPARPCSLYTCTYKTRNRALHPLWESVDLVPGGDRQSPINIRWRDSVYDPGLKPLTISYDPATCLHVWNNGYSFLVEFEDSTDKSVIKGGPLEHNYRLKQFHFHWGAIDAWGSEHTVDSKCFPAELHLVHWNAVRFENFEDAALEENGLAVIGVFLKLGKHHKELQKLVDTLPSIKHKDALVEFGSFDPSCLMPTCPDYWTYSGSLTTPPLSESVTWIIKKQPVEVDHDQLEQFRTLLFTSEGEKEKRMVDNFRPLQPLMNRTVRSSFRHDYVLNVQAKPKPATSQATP

Consider `N[C@@H](Cc1ccc(O)cc1)C(=O)O`, for which the values for the KA in test [1] and in test [2] were 2.45 µM and 0.044 µM, respectively.
For `NCCc1c[nH]c2ccc(O)cc12`, the KA in test [1] was 6.33 µM; in test [2] it was 0.11 µM.
On the same counts, the results for `NCCN1CCOCC1` are 0.089 µM and 1.15 µM.
As to `N[C@H](Cc1ccc(O)c(O)c1)C(=O)O`, the KA in test [1] amounted to 4.59 µM; in test [2], 3.71 µM.
The corresponding values for `NCCc1c[nH]cn1` are 0.01 µM and 3.52 µM.
For the compound `N[C@@H](Cc1c[nH]cn1)C(=O)O`, the results for the KA in test [1] and in test [2] were 1.34 µM and 0.97 µM, respectively.
The corresponding values for `NCCc1ccccn1` are 7.62 µM and 0.094 µM.
The corresponding values for `NCCc1ccc(O)c(O)c1` are 0.13 µM and 7.85 µM.
The corresponding values for `N[C@@H](Cc1ccc(O)c(O)c1)C(=O)O` are 0.036 µM and 0.063 µM.
As to `NCCN1CCNCC1`, the KA in test [1] amounted to 6.04 µM; in test [2], 0.91 µM.
Regarding `N[C@H](Cc1c[nH]c2ccccc12)C(=O)O`, the KA in test [1] came out at 1.24 µM; in test [2], 1.35 µM.
With `NCc1ccccn1`, the values for the KA in test [1] and in test [2] were 23.6 µM and 0.24 µM, respectively.
The corresponding values for `Nc1ccc(C[C@H](N)C(=O)O)cc1` are 2.76 µM and 2.17 µM.
The corresponding values for `N[C@@H](Cc1c[nH]c2ccccc12)C(=O)O` are 1.13 µM and 0.89 µM.
The corresponding values for `N[C@H](Cc1c[nH]cn1)C(=O)O` are 0.12 µM and 4.38 µM.
